From US7709475B2, “Selective inhibitors against Cdk4 and Cdk6 having aminothiazole skeleton” (Banyu Pharmaceutical Co., Ltd., priority 2004, dated 2010)

Assays:
Format in all cases: biochemical
[1] = target: T1, cyclin D2-Cdk4 (Homo sapiens, UniProt P11802); assay: Cdk4 inhibitory action: cyclin D2-Cdk4 kinase activity, 33P-ATP, RB peptide substrate; conditions: cyclin D2-Cdk4, 50 μM ATP
T1 construct: made in house; host or cells: insect cell Sf9 (baculovirus)
Description: (§1) First, the cDNA of Cdk4, and the cDNA of a fusion protein of cyclin D2, an activating factor of Cdk4, and glutathione S-transferase, were integrated into a baculovirus expression vector to prepare a recombinant baculovirus. This was co-transfected into insect cell Sf9 to express an active complex of the cyclin D2/glutathione S-transferase fusion protein-Cdk4 at a high level. The cells were recovered and solubilized, then the active complex was adsorbed onto Glutathione Sepharose, and a cyclin D2-Cdk4 complex was recovered using Precision Protease and was purified by HPLC column chromatography [EMBO J., Vol. 15, 7060-7069 (1996)].
For the measurement of the activity of cyclin D2-Cdk4, a synthetic peptide (Arg-Pro-Pro-Thr-Leu-Ser-Pro-Ile-Pro-His-Ile-Pro-Arg) corresponding to amino acid residue No. 775-787 of RB protein was used as the substrate [EMBO J., Vol. 15, 7060-7069 (1996)].
The reaction was performed by partially modifying the method of Kitagawa et al. [Oncogene, Vol. 7, 1067-1074 (1992)]. The volume of the reaction solution was 21.1 μL, and the composition of the reaction buffer (R buffer) was 20 mM Tris-hydrochloric acid buffer (pH 7.4)/10 mM magnesium chloride/4.5 mM 2-mercaptoethanol/1 mM ethylene glycol bis(β-aminoethyl ether)-N,N,N′,N′-tetraacetic acid (EGTA). To this reaction buffer, purified cyclin D2-Cdk4, 100 μM of the substrate peptide, 50 μM of non-labeled adenosine triphosphate (ATP), and 1 μCi of [γ-33P]-labeled ATP (2000 to 4000 Ci/mmole) were added to react at 30° C. for 45 minutes. Then, 10 μL of 350 mM phosphate buffer was added to the reaction system to terminate the reaction. The substrate peptide was adsorbed onto P81 paper filter on a 96-well plate, and then washed several times with 75 mM phosphate buffer. The radioactivity of the substrate peptide was measured with a liquid scintillation counter. The [γ-33P]-labeled ATP was purchased from Daiichi Pure Chemicals Co., Ltd.
Addition of the test compound to the reaction system was carried out by first preparing a dilution series of solutions of the compound in dimethylsulfoxide (DMSO), and adding 1.1 μL of the dilutions. A control was provided by adding 1.1 μL of DMSO to the reaction system.
A representative compound of the compounds according to the invention was selected, and the IC50 value of this compound for the cyclin D2-Cdk4 activity was determined.

[2] = target: T2, cyclin T1-Cdk9 (Homo sapiens, UniProt P50750); assay: Cdk9 inhibitory action: cyclin T1-Cdk9 kinase activity; conditions: cyclin T1-Cdk9, 50 μM ATP
T2 construct: made in house; host or cells: insect cell Sf9 (baculovirus)
Description: The cDNA of Cdk9, and the cDNA of a fusion protein of cyclin T1, an activating factor of Cdk9, and glutathione S-transferase, were integrated into a baculovirus expression vector to prepare a recombinant baculovirus. This was co-transfected into insect cell Sf9 to express an active complex of the cyclin T1/glutathione S-transferase fusion protein-Cdk9 at a high level. The cells were recovered and solubilized, and the active complex was adsorbed onto Glutathione Sepharose, and then was purified by elution with 10 mM reductive glutathione. The solution containing the eluted active complex was dialyzed against B buffer (composition: 20 mM Tris-hydrochloric acid buffer (pH 7.4)/200 mM sodium chloride/0.1% Tween-20/10 mM 2-mercaptoethanol/1 mM dithiothreitol/10% glycerol) to remove the reductive glutathione.
For the measurement of the activity of cyclin T1-Cdk9, a synthetic peptide ([…] was used as the substrate.
(§2) The reaction was performed by partially modifying the method of Kitagawa et al. [Oncogene, Vol. 7, 1067-1074 (1992)]. The volume of the reaction solution was 21.1 μL, and to the R buffer, purified cyclin T1-Cdk9, 25 μM of the substrate peptide, 50 μM of non-labeled adenosine triphosphate (ATP), and 0.5 μCi of [γ-33P]-labeled ATP (2000 to 4000 Ci/mmole) were added to react at 30° C. for 20 minutes. Then, 10 μL of 350 mM phosphate buffer was added to the reaction system to terminate the reaction. The substrate peptide was adsorbed onto P81 paper filter on a 96-well plate, and then washed several times with 75 mM phosphate buffer. The radioactivity of the substrate peptide was measured with a liquid scintillation counter.
Addition of the compound according to the invention to the reaction system was carried out by first preparing a dilution series of solutions of the compound in dimethylsulfoxide (DMSO), and adding […] of the dilutions. A control was provided by adding 1.1 μL of DMSO to the reaction system.
A representative compound of the compounds according to the invention was selected, and the IC50 value (nM) of this compound for the cyclin T1-Cdk9 activity was determined.

[3] = target: T3, cyclin D2-Cdk6 (Homo sapiens, UniProt Q00534); assay: Cdk6 inhibitory action: cyclin D2-Cdk6 kinase activity; conditions: for IC50: cyclin D2-Cdk6, 50 μM ATP; for K1/K6, selectivity for Cdk6 against Cdk1: IC50 of Cdk1 divided by IC50 of Cdk6; for K2/K6, selectivity for Cdk6 against Cdk2: IC50 of Cdk2 divided by IC50 of Cdk6; for K5/K6, selectivity for Cdk6 against Cdk5: IC50 of Cdk5 divided by IC50 of Cdk6; for K7/K6, selectivity for Cdk6 against Cdk7: IC50 of Cdk7 divided by IC50 of Cdk6; for K9/K6, selectivity for Cdk6 against Cdk9: IC50 of Cdk9 divided by IC50 of Cdk6
T3 construct: made in house; host or cells: insect cell Sf9 (baculovirus)
Description: as §1, with “In the same manner as in the case of cyclin D2-Cdk4,” for “First,”, “Cdk6,” for “Cdk4,”, “protein-Cdk6” for “protein-Cdk4”, “D2-Cdk6” for “D2-Cdk4”, “chromatography.” for “chromatography [EMBO J., Vol. 15, 7060-7069 (1996)].”
For the measurement of the activity of cyclin D2-Cdk6, a synthetic peptide (Arg-Pro-Pro-Thr-Leu-Ser-Pro-Ile-Pro-His-Ile-Pro-Arg) was used as the substrate.
as §2, with “cyclin D2-Cdk6, 100” for “cyclin T1-Cdk9, 25”, “and 1” for “and 0.5”, “for 40” for “for 20”
Addition of the compound according to the invention to the reaction system was carried out by first preparing a dilution series of solutions of the compound in dimethylsulfoxide (DMSO), and adding 1.1 μL of the dilutions. A control was provided by adding 1.1 μL of DMSO to the reaction system.
A representative compound of the compounds according to the invention was selected, and the IC50 value of this compound for the cyclin D2-Cdk6 activity was determined.

T1 sequence (P11802 whole entry): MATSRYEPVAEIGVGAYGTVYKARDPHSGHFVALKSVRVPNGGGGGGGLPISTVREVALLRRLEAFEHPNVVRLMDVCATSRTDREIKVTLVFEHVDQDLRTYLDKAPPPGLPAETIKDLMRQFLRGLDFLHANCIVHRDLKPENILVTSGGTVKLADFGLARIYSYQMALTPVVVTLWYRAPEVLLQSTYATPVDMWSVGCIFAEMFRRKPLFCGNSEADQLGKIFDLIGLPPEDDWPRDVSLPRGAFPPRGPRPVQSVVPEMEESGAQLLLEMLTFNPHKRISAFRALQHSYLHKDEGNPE
T1 sequence (P30279 whole entry partner): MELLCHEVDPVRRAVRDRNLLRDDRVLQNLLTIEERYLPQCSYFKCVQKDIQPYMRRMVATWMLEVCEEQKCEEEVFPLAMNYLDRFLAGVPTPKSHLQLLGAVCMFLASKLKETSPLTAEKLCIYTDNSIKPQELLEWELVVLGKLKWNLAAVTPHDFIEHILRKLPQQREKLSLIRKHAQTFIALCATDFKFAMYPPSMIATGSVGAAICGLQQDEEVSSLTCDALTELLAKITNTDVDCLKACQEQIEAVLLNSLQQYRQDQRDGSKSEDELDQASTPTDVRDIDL
T3 sequence (Q00534 whole entry): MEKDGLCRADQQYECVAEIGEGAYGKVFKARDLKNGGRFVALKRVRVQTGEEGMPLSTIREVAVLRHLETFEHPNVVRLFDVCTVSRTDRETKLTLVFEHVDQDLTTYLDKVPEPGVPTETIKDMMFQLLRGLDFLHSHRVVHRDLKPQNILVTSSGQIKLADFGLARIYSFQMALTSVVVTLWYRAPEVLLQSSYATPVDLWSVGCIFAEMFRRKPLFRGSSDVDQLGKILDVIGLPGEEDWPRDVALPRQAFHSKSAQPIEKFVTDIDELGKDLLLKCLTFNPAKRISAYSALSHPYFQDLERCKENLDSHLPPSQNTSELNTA
T3 sequence (P30279 whole entry partner): as the sequence (P30279 whole entry partner) above
T2 sequence (P50750 whole entry): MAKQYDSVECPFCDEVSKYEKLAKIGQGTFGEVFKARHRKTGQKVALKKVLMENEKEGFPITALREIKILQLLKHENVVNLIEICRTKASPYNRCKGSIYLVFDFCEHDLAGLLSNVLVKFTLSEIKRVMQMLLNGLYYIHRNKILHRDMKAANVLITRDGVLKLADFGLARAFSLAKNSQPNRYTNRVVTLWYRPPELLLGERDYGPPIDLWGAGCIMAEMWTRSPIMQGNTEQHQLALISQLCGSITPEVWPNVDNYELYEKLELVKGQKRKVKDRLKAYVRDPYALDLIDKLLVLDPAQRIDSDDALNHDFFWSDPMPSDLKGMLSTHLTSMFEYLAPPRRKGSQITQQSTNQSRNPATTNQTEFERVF
T2 sequence (O60563 whole entry partner): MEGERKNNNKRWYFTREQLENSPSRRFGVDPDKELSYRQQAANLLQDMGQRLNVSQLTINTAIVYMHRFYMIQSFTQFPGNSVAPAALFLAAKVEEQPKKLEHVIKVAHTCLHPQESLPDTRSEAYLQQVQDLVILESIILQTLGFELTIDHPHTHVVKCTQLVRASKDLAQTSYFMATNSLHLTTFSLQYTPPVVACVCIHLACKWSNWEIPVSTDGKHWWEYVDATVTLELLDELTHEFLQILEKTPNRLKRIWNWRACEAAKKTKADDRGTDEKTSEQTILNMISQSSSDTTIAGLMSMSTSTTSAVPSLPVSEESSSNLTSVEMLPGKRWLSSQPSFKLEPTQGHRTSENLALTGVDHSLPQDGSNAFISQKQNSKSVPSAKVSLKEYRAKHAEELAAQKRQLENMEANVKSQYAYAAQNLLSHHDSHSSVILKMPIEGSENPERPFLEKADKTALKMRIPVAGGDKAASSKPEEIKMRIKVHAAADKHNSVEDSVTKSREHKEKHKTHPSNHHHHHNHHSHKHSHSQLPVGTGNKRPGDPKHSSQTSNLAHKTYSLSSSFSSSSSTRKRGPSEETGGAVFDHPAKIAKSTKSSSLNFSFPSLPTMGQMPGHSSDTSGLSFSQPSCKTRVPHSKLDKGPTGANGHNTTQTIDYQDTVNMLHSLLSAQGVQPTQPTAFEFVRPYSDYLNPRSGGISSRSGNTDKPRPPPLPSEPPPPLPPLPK

Structure (SMILES) | IC50 [1] [nM] | IC50 [2] [nM] | IC50 [3] [nM] | K1/K6, selectivity for Cdk6 against Cdk1 [3] | K2/K6, selectivity for Cdk6 against Cdk2 [3] | K5/K6, selectivity for Cdk6 against Cdk5 [3] | K7/K6, selectivity for Cdk6 against Cdk7 [3] | K9/K6, selectivity for Cdk6 against Cdk9 [3]
Cc1cc(-c2cnc(Nc3cnc(CNCCO)cn3)s2)nc(SC2CCCCC2)n1 [Example 99, 5-[2-(cyclohexylthio)-6-methyl-4-pyrimidinyl]-2-[5-(2-hydroxyethylamino)methyl-2-pyrazinyl]amino-1,3-thiazole] | 6 | 98 | – | – | – | – | – | –
Cc1cc(-c2cnc(Nc3cnc(CN4CCN(C)CC4)cn3)s2)nc(OC2CCCCC2)n1 [Example 1, 5-[2-(cyclohexyloxy)-6-methyl-4-pyrimidinyl]-2-[5-(4-methyl-1-piperazinyl)methyl-2-pyrazinyl]amino-1,3-thiazole] | 9.2 | 2500 | 7.8 | 77 | 218 | 385 | 68 | 321
Cc1cc(-c2cnc(Nc3cnc(CN4CCN(C)CC4)cn3)s2)nc(Sc2ccccc2Cl)n1 [Example 109, 5-[2-(2-chlorophenylthio)-6-methyl-4-pyrimidinyl]-2-[5-(4-methyl-1-piperazinyl)methyl-2-pyrazinyl]amino-1,3-thiazole] | 5.7 | 640 | 18 | – | – | – | – | –
Cc1cc(-c2cnc(Nc3cnc(CN4CCCC4)cn3)s2)nc(SC2CCCCC2)n1 [Example 93, 5-[2-(cyclohexylthio)-6-methyl-4-pyrimidinyl]-2-[5-(1-pyrrolidinyl)methyl-2-pyrazinyl]amino-1,3-thiazole] | 4.2 | 230 | 7.3 | – | – | – | – | –
Cc1cc(-c2cnc(Nc3cnc(CNC(C)C)cn3)s2)nc(SC2CCCCC2)n1 [Example 96, 5-[2-(cyclohexylthio)-6-methyl-4-pyrimidinyl]-2-[5-(isopropylamino)methyl-2-pyrazinyl]amino-1,3-thiazole] | 5.8 | 140 | 9.3 | – | – | – | – | –
Cc1cc(-c2cnc(Nc3ccc(CN4CCC[C@H]4CO)cn3)s2)nc(NC2CCCCC2)n1 [Example 137, (2S)-5-[2-(cyclohexylamino)-6-methyl-4-pyrimidinyl]-2-[5-(2-hydroxymethyl-1-pyrrolidinyl)methyl-2-pyridyl]amino-1,3-thiazole] | 7.2 | 1100 | 21 | 57 | 214 | 143 | 57 | 52
Cc1cc(-c2cnc(Nc3cnc(CN4CCC(N(C)C)C4)cn3)s2)nc(SC2CCCCC2)n1 (centres unmarked) [Example 94, 5-[2-(cyclohexylthio)-6-methyl-4-pyrimidinyl]-2-[5-(3-dimethylamino-1-pyrrolidinyl)methyl-2-pyrazinyl]amino-1,3-thiazole] | 3.9 | 270 | 16 | – | – | – | – | –

Further compounds by falling IC50 [1], results first:

IC50 [1] [nM] | IC50 [2] [nM] | IC50 [3] [nM] | K1/K6, selectivity for Cdk6 against Cdk1 [3] | K2/K6, selectivity for Cdk6 against Cdk2 [3] | K5/K6, selectivity for Cdk6 against Cdk5 [3] | K7/K6, selectivity for Cdk6 against Cdk7 [3] | K9/K6, selectivity for Cdk6 against Cdk9 [3] | Structure (SMILES)
9 | 650 | 17 | – | – | – | – | – | CC(=O)N1CCN(Cc2ccc(Nc3ncc(-c4cc(C)nc(OC5CCCCC5)n4)s3)nc2)CC1 [Example 125, 5-[2-(cyclohexyloxy)-6-methyl-4-pyrimidinyl]-2-[5-(4-acetyl-1-piperazinyl)methyl-2-pyridyl]amino-1,3-thiazole]
6 | 430 | 13 | 48 | 65 | 200 | 28 | 33 | Cc1cc(-c2cnc(Nc3cnc(CN4CCC(N(C)C)C4)cn3)s2)nc(OC2CCCCC2)n1 (centres unmarked) [Example 13, 5-[2-(cyclohexyloxy)-6-methyl-4-pyrimidinyl]-2-[5-(3-dimethylamino-1-pyrrolidinyl)methyl-2-pyrazinyl]amino-1,3-thiazole]
3.8 | 1400 | 5.1 | – | – | – | – | – | Cc1cc(-c2cnc(Nc3cnc(CN4CCN(C)CC4)cn3)s2)nc(NC2CCCCC2)n1 [Example 55, 5-[2-(cyclohexylamino)-6-methyl-4-pyrimidinyl]-2-[5-(4-methyl-1-piperazinyl)methyl-2-pyrazinyl]amino-1,3-thiazole]
